Data as given in patent US6369225B1, “Compounds having activity as inhibitors of cytochrome P450RAI” (Allergan Sales, Inc., priority 2000, dated 2002).

Columns and labels:
RARγ = biological target: T1, RARγ (Homo sapiens, UniProt P13631); test: ligand binding assay, RARγ; details: Kd line of EC50/(EFFICACY)/Kd, read-out: RAR Kd γ
T1 sequence (P13631 1-454): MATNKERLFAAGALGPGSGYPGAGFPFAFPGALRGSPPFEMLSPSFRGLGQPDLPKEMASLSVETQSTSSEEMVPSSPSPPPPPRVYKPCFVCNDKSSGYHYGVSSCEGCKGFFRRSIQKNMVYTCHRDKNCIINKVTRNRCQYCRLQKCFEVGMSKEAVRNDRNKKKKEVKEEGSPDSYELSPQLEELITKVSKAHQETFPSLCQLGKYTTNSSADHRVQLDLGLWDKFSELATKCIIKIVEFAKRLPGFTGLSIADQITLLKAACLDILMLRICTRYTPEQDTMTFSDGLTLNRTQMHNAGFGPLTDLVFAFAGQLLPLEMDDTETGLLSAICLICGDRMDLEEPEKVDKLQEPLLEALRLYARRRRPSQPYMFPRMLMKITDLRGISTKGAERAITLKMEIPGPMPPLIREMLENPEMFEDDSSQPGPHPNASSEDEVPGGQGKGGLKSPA

RARα = biological target: T2, RARα (Homo sapiens, UniProt P10276); test: ligand binding assay, RARα; details: Kd line of EC50/(EFFICACY)/Kd, read-out: RAR Kd α
T2 sequence (P10276 1-462): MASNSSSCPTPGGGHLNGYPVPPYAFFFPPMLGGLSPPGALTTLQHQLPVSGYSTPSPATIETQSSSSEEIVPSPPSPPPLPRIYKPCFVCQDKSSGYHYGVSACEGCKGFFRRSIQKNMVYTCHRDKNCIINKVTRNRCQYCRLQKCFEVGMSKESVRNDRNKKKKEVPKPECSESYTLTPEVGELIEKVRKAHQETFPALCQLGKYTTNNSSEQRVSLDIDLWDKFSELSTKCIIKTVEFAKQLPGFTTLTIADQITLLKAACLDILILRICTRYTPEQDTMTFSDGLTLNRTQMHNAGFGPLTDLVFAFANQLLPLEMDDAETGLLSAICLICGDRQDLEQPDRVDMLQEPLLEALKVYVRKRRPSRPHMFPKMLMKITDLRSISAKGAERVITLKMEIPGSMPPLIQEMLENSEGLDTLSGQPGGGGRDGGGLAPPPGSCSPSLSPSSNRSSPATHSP

RARβ [1] = biological target: T3, RARβ (Homo sapiens, UniProt P10826); test: ligand binding assay, RARβ; details: Kd line of EC50/(EFFICACY)/Kd, read-out: RAR Kd β
T3 sequence (P10826 1-455): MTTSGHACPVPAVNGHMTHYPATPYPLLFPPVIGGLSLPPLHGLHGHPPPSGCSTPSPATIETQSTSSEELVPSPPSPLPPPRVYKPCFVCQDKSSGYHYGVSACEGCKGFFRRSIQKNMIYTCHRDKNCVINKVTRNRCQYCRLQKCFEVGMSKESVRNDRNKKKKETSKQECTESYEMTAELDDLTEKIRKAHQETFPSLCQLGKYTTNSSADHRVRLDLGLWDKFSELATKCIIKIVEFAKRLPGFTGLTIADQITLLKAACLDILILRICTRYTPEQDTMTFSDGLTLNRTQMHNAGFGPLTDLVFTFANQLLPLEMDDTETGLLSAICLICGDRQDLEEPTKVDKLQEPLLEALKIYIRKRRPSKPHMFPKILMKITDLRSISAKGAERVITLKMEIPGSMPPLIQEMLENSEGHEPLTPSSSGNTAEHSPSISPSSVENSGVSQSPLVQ

RARβ [2] = biological target: T4, RARβ (Homo sapiens, UniProt P10826); test: chimeric receptor transactivation assay, RARβ; type: cell-based; details: EC50 line of EC50/(EFFICACY)/Kd, read-out: RAR EC50 β
T4 sequence (P10826 183-417 limits assumed): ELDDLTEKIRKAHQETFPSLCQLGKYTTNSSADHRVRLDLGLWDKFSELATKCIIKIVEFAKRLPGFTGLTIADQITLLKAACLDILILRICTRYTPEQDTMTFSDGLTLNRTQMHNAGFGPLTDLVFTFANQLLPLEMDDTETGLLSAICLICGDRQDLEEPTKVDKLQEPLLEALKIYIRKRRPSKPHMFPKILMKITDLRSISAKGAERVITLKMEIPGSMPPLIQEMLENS
Source text: Assays described below measure the ability of a compound to bind to, and/or activate various retinoid receptor subtypes. When in these assays a compound binds to a given receptor subtype and activates the transcription of a reporter gene through that subtype, then the compound is considered an agonist of that receptor subtype. […] In the below described assays the ability of the compounds to bind to RARα, RARβ, RARγ, RXRα, RXRβ and RXRγ receptors, and the ability or inability of the compounds to activate transcription of a reporter gene through these receptor subtypes can be tested.
As far as specific assays are concerned, a chimeric receptor transactivation assay which tests for agonist-like activity in the RARα, RARβ, AND RARγ, receptor subtypes, and which is based on work published by Feigner P. L. and Holm M. (1989) Focus, 112 is described in detail in U.S. Pat. No. 5,455,265. The specification of U.S. Pat. No. 5,455,265 is hereby expressly incorporated by reference. The numeric results obtained with several preferred compounds of this invention in this assay are shown below in Table 1.

## CC(C)OC1(c2ccc(C#Cc3ccc(C(=O)O)cc3)cc2)CC1 [Compound 73, 4-[4-(1-Isopropoxycyclopropyl)-phenylethynyl]-benzoic Acid]
RARγ
  Kd: 0.351 µM
RARα
  Kd: 0.486 µM
RARβ [1]
  Kd: 0.026 µM
RARβ [2]
  EC50: 0.0225 µM

## CCc1cc(C#Cc2ccc(C(=O)O)cc2)ccc1C1(OCc2ccccc2)CC1 [Compound 93, 4-[4-(1-Benzyloxycyclopropyl)-3-ethyl-phenylethynyl]-benzoic Acid]
RARγ
  Kd: 0.358 µM
RARα
  Kd: 3.45 µM
RARβ [1]
  Kd: 0.554 µM
RARβ [2]
  EC50: 0.02 µM

## CCCNC1(c2ccc(C#Cc3ccc(C(=O)O)cc3)cc2)CC1 [Compound 108, 4-[4-(1-Propylamino-cyclopropyl)-phenylethynyl]-benzoic Acid]
RARγ
  Kd: 13 µM
RARα
  Kd: 21 µM
RARβ [1]
  Kd: 0.547 µM
RARβ [2]
  EC50: 0.283 µM

## O=C(O)c1ccc(C#Cc2ccc(C3(NCc4ccccc4)CC3)cc2)cc1 [Compound 112, 4-[4-(1-Benzylamino-cyclopropyl)-phenylethynyl]-benzoic Acid]
RARγ
  Kd: 0.685 µM
RARα
  Kd: 5.85 µM
RARβ [1]
  Kd: 0.704 µM
RARβ [2]
  EC50: 0.335 µM

## Cc1cc(C#Cc2ccc(C(=O)O)cc2)ccc1C1(OCC(C)(C)C)CC1 [Compound 89, 4-[4-[1-(2,2-Dimethylpropyloxy)-cyclopropyl]-3-methyl-phenylethynyl]-benzoic Acid]
RARγ
  Kd: 0.475 µM
RARα
  Kd: 3.41 µM
RARβ [1]
  Kd: 0.98 µM
RARβ [2]
  EC50: 0.026 µM

## CC1(C)CCC(=O)c2ccc(C#Cc3ccc(CC(=O)O)cc3)cc21 [Compound 5, 4-[(8,8-Dimethyl-5-oxo-5,6,7,8-tetrahydro-naphthalene-2-yl-ethynyl)-phenyl]-acetic Acid]
RARγ
  Kd: > 10 µM
RARα
  Kd: 9.15 µM
RARβ [1]
  Kd: 2.81 µM
RARβ [2]
  EC50: 0.011 µM

## CN(C1CC1)C1CCC(C)(C)c2cc(C#Cc3ccc(C(=O)O)cc3)ccc21 (stereo not shown) [Compound 3, 4-[(5-Cyclopropyl-methyl-amino)-8,8-dimethyl-5,6,7,8-tetrahydro-naphthalene-2yl-ethynyl]-benzoic Acid]
RARγ
  Kd: 0.158 µM
RARα
  Kd: 0.145 µM
RARβ [1]
  Kd: 0.0008 µM
RARβ [2]
  EC50: 0.0048 µM

## CN(C1CC1)C1CCC(C)(C)c2cc(C#Cc3ccc(CC(=O)O)cc3)ccc21 (stereo not shown) [Compound 8, 4-[(5-(Cyclopropyl-methyl-amino)-8,8-dimethyl-5,6,7,8-tetrahydro-naphthalene-2-yl-ethynyl)-phenyl]-acetic Acid]
RARγ
  Kd: 25 µM
RARβ [1]
  Kd: 3.78 µM
RARβ [2]
  EC50: 0.363 µM

## Cc1cc(C#Cc2ccc(C(=O)O)cc2)ccc1C1(OCc2ccccc2)CC1 [Compound 81, 4-[4-(1-Benzyloxycyclopropyl)-3-methyl-phenylethynyl]-benzoic Acid]
RARγ
  Kd: 1.06 µM
RARα
  Kd: 4.21 µM
RARβ [1]
  Kd: 0.846 µM
RARβ [2]
  EC50: 0.49 µM

## CCCN(CCC)C1(c2ccc(C#Cc3ccc(C(=O)O)cc3)cc2)CC1 [Compound 110, 4-[4-(1-Dipropylamino-cyclopropyl)-phenylethynyl]-benzoic Acid]
RARγ
  Kd: < 10 µM
RARα
  Kd: 2.06 µM
RARβ [1]
  Kd: 0.409 µM
RARβ [2]
  EC50: 0.074 µM

## Cc1cc(C#Cc2ccc(C(=O)O)cc2)ccc1C1(OC(C)C)CC1 [Compound 85, 4-[4-(1-Isopropoxycyclopropyl)-3-methyl-phenylethynyl]-benzoic Acid]
RARγ
  Kd: 0.302 µM
RARα
  Kd: 1.86 µM
RARβ [1]
  Kd: 0.24 µM
RARβ [2]
  EC50: 0.0035 µM

## CC1(C)CC2(CC2)Oc2ccc(C#Cc3ccc(C(=O)O)cc3)cc21 [Compound 40, Benzoic Acid, 4-[(3,4-dihydro-4,4-dimethylspiro[2H-1-benzopyran-2,1′-cyclopropane]-6-yl)ethynyl]-]
RARγ
  Kd: 0.363 µM
RARα
  Kd: 0.069 µM
RARβ [1]
  Kd: 0.0013 µM
RARβ [2]
  EC50: 0.0012 µM

## CC1(C)CC2(CC2)Oc2ccc(C#Cc3ccc(C(=O)O)c(F)c3)cc21 [Compound 44, 2-Fluoro-benzoic Acid, 4-[(3,4-dihydro-4,4-dimethylspiro[2H-1-benzopyran-2,1′-cyclopropane]-6-yl)ethynyl]-]
RARγ
  Kd: 0.392 µM
RARα
  Kd: 0.037 µM
RARβ [1]
  Kd: 0.0019 µM
RARβ [2]
  EC50: 0.0017 µM

## COC1(c2ccc(C#Cc3ccc(C(=O)O)cc3)cc2)CC1 [Compound 69, 4-[4-(1-Methoxycyclopropyl)-phenylethynyl]-benzoic Acid]
RARγ
  Kd: 0.501 µM
RARα
  Kd: 0.469 µM
RARβ [1]
  Kd: 0.133 µM
RARβ [2]
  EC50: 0.012 µM
